Target: human lung tryptase
Assay: β-Tryptase In-Vitro Enzyme Assay
Assay type: biochemical
Details: human lung tryptase 1 nM, substrate H-D-HHT-Ala-Arg-pNa 500 μM, pH 7.4, room temperature
Procedure: The β-tryptase assay was conducted with human lung tryptase (Cortex Biochem #CP3033) in an aqueous buffer (10 mM Tris, 10 mM Hepes, 150 mM NaCl, 0.1% PEG 8000, pH 7.4) using the chromogenic substrate H-D-HHT-Ala-Arg-pNa. […] Percent inhibition was calculated by comparing the initial reaction velocity of samples without inhibitor to those with inhibitor. The initial reaction velocities were analyzed using Microsoft Excel.

Row | Structure (SMILES) | IC50
1 | CS(=O)(=O)c1ccc(C(=O)N2CCC3(CC2)COc2ccc(CN)cc23)s1 [Cpd 169, 1-(5-methylsulfonyl-thien-2-yl)carbonyl-5′-aminomethyl-spiro[piperidine-4,3′-(2H)-benzo[b]furan]] | 1.6 µM
2 | COc1cccc(CC(=O)N2CCC3(CC2)COc2ccc(CN)cc23)c1 [Cpd 99, 1-(3-methoxy-benzyl)carbonyl-5′-aminomethyl-spiro[piperidine-4,3′-(2H)-benzo[b]furan]] | 0.58 µM
3 | COc1ccccc1/C=C\C(=O)N1CCC2(CC1)COc1ccc(CN)cc12 [Cpd 183, (Z)-1-(2-methoxy-phenylethenyl)carbonyl-5′-aminomethyl-spiro[piperidine-4,3′-(2H)-benzo[b]furan]] | 5.8 µM
4 | NS(=O)(=O)NCc1ccc2c(c1)C1(CCN(C(=O)c3ccc(C#Cc4ccccc4)o3)CC1)CO2 [Cpd 305, 1-(5-phenylethynyl-furan-2-yl)carbonyl-5′-aminosulfonylaminomethyl-spiro[piperidine-4,3′-(2H)-benzo[b]furan]] | 6.3 µM
5 | CC(=O)N/C(=C\c1ccccc1)C(=O)N1CCC2(CC1)COc1ccc(CN)cc12 [Cpd 205, (Z)-1-(1-methylcarbonylamino-2-phenylethenyl)carbonyl-5′-aminomethyl-spiro[piperidine-4,3′-(2H)-benzo[b]furan]] | 0.74 µM
6 | Cc1nc(-c2cccnc2)sc1C(=O)N1CCC2(CC1)COc1ccc(CN)cc12 [Cpd 124, 1-(2-pyridin-3-yl-4-methyl-thiazol-5-yl)carbonyl-5′-aminomethyl-spiro[piperidine-4,3′-(2H)-benzo[b]furan]] | 1.1 µM
7 | NCc1ccc2c(c1)C1(CCN(C(=O)c3ccc(OCc4ccccc4)cc3)CC1)CO2 [Cpd 76, 1-(4-benzyloxy-phenyl)carbonyl-5′-aminomethyl-spiro[piperidine-4,3′-(2H)-benzo[b]furan]] | 0.42 µM
8 | NCc1ccc2c(c1)C1(CCN(C(=O)Cc3cccc(F)c3)CC1)CO2 [Cpd 80, 1-(3-fluoro-benzyl)carbonyl-5′-aminomethyl-spiro[piperidine-4,3′-(2H)-benzo[b]furan]] | 2.7 µM
9 | NCc1ccc2c(c1)C1(CCN(C(=O)C3CCCCC3)CC1)CO2 [Cpd 37, 1-cyclohexylcarbonyl-5′-aminomethyl-spiro[piperidine-4,3′-(2H)-benzo[b]furan]] | 0.73 µM
10 | NCc1ccc2c(c1)C1(CCN(C(=O)c3ccc4c(c3)S(=O)(=O)c3ccccc3C4=O)CC1)CO2 [Cpd 7, 1-(9-oxo-10,10-dioxo-thioxanthen-3-yl)carbonyl-5′-aminomethyl-spiro[piperidine-4,3′-(2H)-benzo[b]furan]] | 0.78 µM
11 | Cc1ccc2nc(C(=O)N3CCC4(CC3)COc3ccc(CN)cc34)cn2c1 [Cpd 119, 1-(6-methyl-imidazo[1,2-a]pyridin-2-yl)carbonyl-5′-aminomethyl-spiro[piperidine-4,3′-(2H)-benzo[b]furan]] | 1.4 µM
12 | COCCOc1cccc(/C=C/C(=O)N2CCC3(CC2)COc2ccc(CN)cc23)c1 [Cpd 291, (E)-1-[3-(2-methoxy-ethoxy)-phenylethenyl]carbonyl-5′-aminomethyl-spiro[piperidine-4,3′-(2H)-benzo[b]furan]] | 0.4 µM
13 | NCc1ccc2c(c1)C1(CCN(C(=O)c3cc4cc(Cl)ccc4o3)CC1)CO2 [Cpd 13, 1-(5-chloro-benzo[b]-furan-2-yl)carbonyl-5′-aminomethyl-spiro[piperidine-4,3′-(2H)-benzo[b]furan]] | 1.1 µM

Now those with a lower IC50, led by results:

Row | IC50 | Structure (SMILES)
14 | 0.026 µM | NCc1ccc2c(c1)C1(CCN(C(=O)c3ccc(C#Cc4cccc5ccccc45)o3)CC1)CO2 [Cpd 177, 1-(5-naphthalen-1-ylethynyl-furan-2-yl)carbonyl-5′-aminomethyl-spiro[piperidine-4,3′-(2H)-benzo[b]furan]]
15 | 0.024 µM | NCc1ccc2c(c1)C1(CCN(C(=O)c3ccc(C#Cc4ccccc4)o3)CC1)CN2S(=O)(=O)c1csc(C(=O)O)c1 [Cpd 347, 1-(5-phenylethynyl-furan-2-yl)carbonyl-1′-(5-carboxy-thien-3-yl)sulfonyl-5′-aminomethyl-spiro[piperidine-4,3′-(2H)-indole]]
16 | 0.33 µM | N#C/C(=C\c1ccccc1)C(=O)N1CCC2(CC1)COc1ccc(CN)cc12 [Cpd 248, (E)-1-(1-cyano-2-phenylethenyl)carbonyl-5′-aminomethyl-spiro[piperidine-4,3′-(2H)-benzo[b]furan]]
17 | 0.33 µM | COc1ccc2c(Cl)c(C(=O)N3CCC4(CC3)COc3ccc(CN)cc34)sc2c1 [Cpd 209, 1-(3-chloro-6-methoxy-benzo[b]thien-2-yl)carbonyl-5′-aminomethyl-spiro[piperidine-4,3′-(2H)-benzo[b]furan]]
18 | 0.017 µM | CCCSc1sc(C(=O)N2CCC3(CC2)COc2ccc(CN)cc23)c2c1C(=O)CCC2 [Cpd 211, 1-(3-propylthio-4-oxo-5,6,7-trihydro-4H-benzo[c]thien-1-yl)carbonyl-5′-aminomethyl-spiro[piperidine-4,3′-(2H)-benzo[b]furan]]
19 | 0.18 µM | NCc1ccc2c(c1)C1(CCN(C(=O)/C=C/c3ccccc3Br)CC1)CO2 [Cpd 199, (E)-1-(2-bromo-phenylethenyl)carbonyl-5′-aminomethyl-spiro[piperidine-4,3′-(2H)-benzo[b]furan]]
20 | 0.15 µM | NCc1ccc2c(c1)C1(CCN(C(=O)c3ccc4ccccc4c3)CC1)CO2 [Cpd 70, 1-naphthalen-2-ylcarbonyl-5′-aminomethyl-spiro[piperidine-4,3′-(2H)-benzo[b]furan]]
21 | 0.36 µM | NCc1ccc2c(c1)C1(CCN(C(=O)c3ccc(Br)cc3)CC1)CO2 [Cpd 59, 1-(4-bromo-phenyl)carbonyl-5′-aminomethyl-spiro[piperidine-4,3′-(2H)-benzo[b]furan]]
22 | 0.071 µM | N=C(NO)c1ccc2c(c1)C1(CCN(C(=O)c3ccc(C#Cc4ccccc4)o3)CC1)CO2 [Cpd 306, 1-(5-phenylethynyl-furan-2-yl)carbonyl-5′-[hydroxyamino(imino)methyl]-spiro[piperidine-4,3′-(2H)-benzo[b]furan]]
23 | 0.37 µM | NCc1ccc2c(c1)C1(CCN(C(=O)/C=C/c3cccs3)CC1)CO2 [Cpd 254, (E)-1-(thien-2-ylethenyl)carbonyl-5′-aminomethyl-spiro[piperidine-4,3′-(2H)-benzo[b]furan]]
24 | 0.14 µM | NCc1ccc2c(c1)C1(CCN(C(=O)c3cccc(-c4ccc5c(c4)OCO5)c3)CC1)CO2 [Cpd 20, 1-(3-benzodioxol-5-yl-phenyl)carbonyl-5′-aminomethyl-spiro[piperidine-4,3′-(2H)-benzo[b]furan]]
25 | 0.36 µM | Cn1c(C(=O)N2CCC3(CC2)COc2ccc(CN)cc23)cc2ccccc21 [Cpd 193, 1-(1-methyl-indol-2-yl)carbonyl-5′-aminomethyl-spiro[piperidine-4,3′-(2H)-benzo[b]furan]]
26 | 0.03 µM | COc1cccc(-c2ccc(C(=O)N3CCC4(CC3)COc3ccc(CN)cc34)o2)c1 [Cpd 144, 1-[5-(3-methoxy-phenyl)-furan-2-yl]carbonyl-5′-aminomethyl-spiro[piperidine-4,3′-(2H)-benzo[b]furan]]
27 | 0.026 µM | NCc1ccc2c(c1)C1(CCN(C(=O)c3ccc(C#Cc4ccccc4)o3)CC1)CN2 [Cpd 319, 1-(5-phenylethynyl-furan-2-yl)carbonyl-5′-aminomethyl-spiro[piperidine-4,3′-(2H)-indole]]
